How the values were obtained:
[1] = tested on: single-strain DNA chains; assay: Fluorescence measurements on gradual addition of DNA solution; conditions: ultra pure water; DNA solution added in 2 μl portions (20 nmol/ml)
Description: (§1) Fluorescence emission was then recorded after each addition the DNA solution (2 μl, 20 nmol/ml). The ratio of N* and T* bands was calculated and a graph, having N*/T* ratio vs DNA concentration was plotted.

[2] = tested on: C25: single-strain DNA chain, comprising 25 Cytosines; assay: Fluorescence N*/T* ratio vs DNA concentration, C25; conditions: C25 added to 3-HFNMe3 in ultra pure water
Description: C25: A single-strain DNA chain, comprising 25 Cytosines
as §1

[3] = tested on: T25: single-strain DNA chain, comprising 25 Thymines; assay: Fluorescence N*/T* ratio vs DNA concentration, T25; conditions: T25 added to 3-HFNMe3 in ultra pure water
Description: T25: A single-strain DNA chain, comprising 25 Thymines
as §1

N-(3-hydroxy-4′-flavonyl)-N,N,N-trimethylammonium sulphate [3-HFNMe3]
effect of DNA addition on fluorescence emission [1]: ratiometric quenching of particularly the N* band | N*/T* curve, rank among DNA chains [2]: highest | N*/T* curve, rank among DNA chains [3]: lowest

From patent publication US9758501B2, “Fluorophore 3-hydroxyflavone” (TUBITAK (TURKIYE BILIMSEL VE TEKNOLOJIK ARASTIRMA KURUMU), priority 2013, dated 2017)
